Literature values, collected in PMC11419783 (Blood, 2024).

Tests used:
[1] = test system: KMT2A and NPM1 altered R/R acute leukemia; details: recommended phase 2 dose, NPM1-altered disease
[2] = test system: KMT2A-r cell lines engineered to express mutant menin (M327I or T349M); details: M327I or T349M in endogenous MEN1-coding sequence
[3] = test system: Recombinant mutant MEN1 (MEN1^M327I, MEN1^T349M)

| SMILES | complete remission/complete remission with partial recovery of peripheral blood counts [1] [%] | sensitivity of menin-mutant cell lines to antiproliferative effects [2] | binding affinity to mutant MEN1 [3] |
| --- | --- | --- | --- |
| CNc1nc(NC2CCN(Cc3ccc4c(cc(C#N)n4C[C@H](C)N4CCN(S(C)(=O)=O)CC4)c3C)CC2)c2cc(CC(F)(F)F)sc2n1 [ziftomenib] | 35 | – | – |
| CNc1nc(NC2CCN(Cc3ccc4c(cc(C#N)n4CC45CC(NC=O)(C4)C5)c3C)CC2)c2cc(CC(F)(F)F)sc2n1 [MI3454] | – | resistant | – |
| CCN(C(=O)c1cc(F)ccc1Oc1cncnc1N1CC2(CCN(C[C@H]3CC[C@H](NS(=O)(=O)CC)CC3)CC2)C1)C(C)C [revumenib] | – | resistant | significant reduction in binding affinity |
| COc1cc(-c2ccc(CN[C@H]3C[C@@H](O)[C@@H](N(C)c4ncnc5sc(CC(F)(F)F)cc45)C3)cc2)nnc1OC [DS-1594] | – | resistant | – |
